Results on 22 compounds are retold here after patent US7973181B2, “Hydroxamic acid derivatives as inhibitors of HDAC enzymatic activity” (Chroma Therapeutics Ltd., priority 2005, dated 2011).

A value given as a limit tells only on which side of the number the result lay.

For one test, the system named is U937. As to the kind of experiment: Cell inhibition assay (SRB cell viability), U937. It is filed as cell-based. The settings on record: Homo sapiens, U-937, 72 h, U937 cells. As to the method: (§1) The corresponding cancer cell lines (Hela, U937 and HUT) growing in log phase were harvested and seeded at 1000 cells/well (200 ul final volume) into 96-well tissue culture plates. Following 24 h of cell growth cells were treated with compounds (final concentration of 20 uM). Plates were then re-incubated for a further 72 h before a sulphorhodamine B (SRB) cell viability assay was conducted according to Skehan 1990 J Natl Canc Inst 82, 1107-1112.
(§2) Data were expressed as a percentage inhibition of the control, measured in the absence of inhibitor, as follows: — % inhibition=100−((S^i/S^o)×100) where S^i is the signal in the presence of inhibitor and S^o is the signal in the presence of DMSO.
(§3) IC50 values were determined by non-linear regression analysis, after fitting the results of eight data points to the equation for sigmoidal dose response with variable slope (% activity against log concentration of compound), using Graphpad Prism software.
(§4) Results of testing the compounds of the examples in this assay are given in the third- fifth columns of Table 1.

For test [1], the target named is histone deacetylase activity (HeLa nuclear extract). The test can be described thus: HDAC fluorescent activity assay (Biomol Fluor de Lys), HeLa nuclear extract. The class given is biochemical. Conditions: Fluor de Lys substrate. As to the method:
The ability of compounds to inhibit histone deacetylase activities was measured using the commercially available HDAC fluorescent activity assay from Biomol. In brief, the Fluor de Lys™ substrate, a lysine with an epsilon-amino acetylation, is incubated with the source of histone deacetylase activity (HeLa nuclear extract) in the presence or absence of inhibitor.
Deacetylation of the substrate sensitises the substrate to Fluor de Lys™ developer, which generates a fluorophore. Thus, incubation of the substrate with a source of HDAC activity results in an increase in signal that is diminished in the presence of an HDAC inhibitor.
Data are expressed as a percentage of the control, measured in the absence of inhibitor, with background signal being subtracted from all samples, as follows: — % activity=((S^i−B)/(S^o−B))×100 where S^i is the signal in the presence of substrate, enzyme and inhibitor, S^o is the signal in the presence of substrate, enzyme and the vehicle in which the inhibitor is dissolved, and B is the background signal measured in the absence of enzyme.
as §3
Histone deacetylase activity from crude nuclear extract derived from HeLa cells was used for screening. The preparation, purchased from 4C (Seneffe, Belgium), was prepared from HeLa cells harvested whilst in exponential growth phase. The nuclear extract is prepared according to Dignam JD1983 Nucl. Acid. Res. 11, 1475-1489, snap frozen in liquid nitrogen and stored at −80° C. The final buffer composition was 20 mM Hepes, 100 mM KCl, 0.2 mM EDTA, 0.5 mM DTT, 0.2 mM PMSF and 20% (v/v) glycerol.
Results of testing the compounds of the examples in this assay are given in the second column of Table 1 below.

In the next test the test system is Hela. The test can be described thus: Cell inhibition assay (SRB cell viability), Hela. The class given is cell-based. Conditions: Homo sapiens, HeLa, 72 h, Hela cells. How it is done: as §1, §2, §3, §4
For another test, the system named is HUT. The test can be described thus: Cell inhibition assay (SRB cell viability), HUT. It is filed as cell-based. The settings on record: 72 h, HUT cells. How it is done: as §1, §2, §3, §4

The term IC50 denotes the concentration at which inhibition is half-maximal. A high value points to weaker potency. As for `CC(=O)N[C@@H](Cc1ccc(NC(=O)CCCCCCC(=O)NO)cc1)C(=O)OC1CCCC1` [Example 1, (S)-2-Acetylamino-3-[4-(7-hydroxycarbamoyl-heptanoylamino)-phenyl]-propionic acid cyclopentyl ester], the IC50 is 330 to 3300 nM with U937, 101 to 1000 nM in test [1], more than 3300 nM in the test on Hela and 330 to 3300 nM in the test on HUT.
Turning to `CC(=O)N[C@@H](Cc1ccc(NC(=O)CCCCCCC(=O)NO)cc1)C(=O)O` [Example 2, (S)-2-Acetylamino-3-[4-(7-hydroxycarbamoyl-heptanoylamino)-phenyl]-propionic acid], the IC50 was more than 3300 nM in the test on U937, 101 to 1000 nM in test [1], more than 3300 nM in the test with Hela and more than 3300 nM with HUT.
With `CC(=O)N[C@H](Cc1ccc(NC(=O)CCCCCCC(=O)NO)cc1)C(=O)OC1CCCC1` [Example 3, (R)-2-Acetylamino-3-[4-(7-hydroxycarbamoyl-heptanoylamino)-phenyl]-propionic acid cyclopentyl ester], the half-maximal inhibitory concentration (IC50) in the test on U937 was more than 3300 nM; in test [1], 101 to 1000 nM; in the test with Hela, more than 3300 nM; with HUT, 330 to 3300 nM.
With `CC(=O)N[C@H](Cc1ccc(NC(=O)CCCCCCC(=O)NO)cc1)C(=O)O` [Example 4, (R)-2-Acetylamino-3-[4(7-hydroxycarbamoyl-heptanoylamino)-phenyl]-propionic acid], the IC50 is more than 3300 nM in the test on U937, more than 1000 nM in test [1], more than 3300 nM in the test on Hela and more than 3300 nM with HUT.
On to `N[C@@H](CCOc1cccc(NC(=O)CCCCCCC(=O)NO)c1)C(=O)OC1CCCC1` [Example 5, (S)-2-Amino-4-[3-(7-hydroxycarbamoyl-heptanoylamino)-phenoxy]-butyric acid cyclopentyl ester], for which the IC50 in the test with U937 is 330 to 3300 nM; in test [1], less than 100 nM; in the test with Hela it was 330 to 3300 nM; in the test with HUT, 330 to 3300 nM.
For `N[C@@H](CCOc1cccc(NC(=O)CCCCCCC(=O)NO)c1)C(=O)O` [Example 6, (S)-2-Amino-4-[3-(7-hydroxycarbamoyl-heptanoylamino)-phenoxy]-butyric acid], the IC50 in the test with U937 is 330 to 3300 nM; in test [1], 101 to 1000 nM; with Hela, more than 3300 nM; in the test on HUT, 330 to 3300 nM.
Consider `N[C@@H](CCOc1ccc(NC(=O)CCCCCCC(=O)NO)cc1)C(=O)OC1CCCC1` [Example 7, (S)-2-Amino-4-[4-(7-hydroxycarbamoyl-heptanoylamino)-phenoxy]-butyric acid cyclopentyl ester], for which the IC50 in the test on U937 was 330 to 3300 nM; in test [1], 101 to 1000 nM; in the test on Hela, 330 to 3300 nM; in the test on HUT it was 330 to 3300 nM.
Turning to `N[C@@H](CCOc1ccc(NC(=O)CCCCCCC(=O)NO)cc1)C(=O)O` [Example 8, (S)-2-Amino-4-[4-(7-hydroxycarbamoyl-heptanoylamino)-phenoxy]-butyric Acid], the half-inhibitory concentration (IC50) in test [1] lay in the range of 101 to 1000 nM.
As for `N[C@@H](CCOc1ccc(CNCc2ccc3cc(C(=O)NO)sc3c2)cc1)C(=O)OC1CCCC1` [Example 9, (S)-2-Amino-4-(4-{[(2-hydroxycarbamoyl-benzo[b]thiophen-6-ylmethyl)-amino]-methyl}-phenoxy)-butyric acid cyclopentyl ester], the IC50 in the test with U937 was less than 330 nM; in test [1], less than 100 nM; in the test with Hela, less than 330 nM; in the test with HUT, less than 330 nM.
As for `N[C@@H](CCOc1ccc(CNCc2ccc3cc(C(=O)NO)sc3c2)cc1)C(=O)O` [Example 10, (S)-2-Amino-4-(4-{[(2-hydroxycarbamoyl-benzo[b]thiophen-6-ylmethyl)-amino]-methyl}-phenoxy)-butyric acid], the IC50 in test [1] is less than 100 nM.
As for `N[C@@H](CCCOc1ccc(CNCc2ccc3cc(C(=O)NO)sc3c2)cc1)C(=O)OC1CCCC1` [Example 11, (S)-2-Amino-5-(4-{[(2-hydroxycarbamoyl-benzo[b]thiophen-6-ylmethyl)-amino]-methyl}-phenoxy)-pentanoic acid cyclopentyl ester], the IC50 with U937 is less than 330 nM; in test [1], less than 100 nM; with Hela, less than 330 nM; with HUT, less than 330 nM.
Regarding `N[C@@H](CCCOc1ccc(CNCc2ccc3cc(C(=O)NO)sc3c2)cc1)C(=O)O` [Example 12, (S)-2-Amino-5-(4-{[(2-hydroxycarbamoyl-benzo[b]thiophen-6-ylmethyl)-amino]-methyl}-phenoxy)-pentanoic acid], in test [1], the 50% inhibitory concentration (IC50) is less than 100 nM.
For `N[C@H](CCOc1ccc(CNCc2ccc3cc(C(=O)NO)sc3c2)cc1)C(=O)OC1CCCC1` [Example 13, (R)-2-Amino-4-(4-{[(2-hydroxycarbamoyl-benzo[b]thiophen-6-ylmethyl)-amino]-methyl}phenoxy)-butyric acid cyclopentyl ester], the 50% inhibitory concentration (IC50) was less than 330 nM in the test on U937, less than 100 nM in test [1], less than 330 nM in the test with Hela and less than 330 nM with HUT.
Consider `N[C@H](CCCOc1ccc(CNCc2ccc3cc(C(=O)NO)sc3c2)cc1)C(=O)OC1CCCC1` [Example 15, (R)-2-Amino-5-(4-{[(2-hydroxycarbamoyl-benzo[b]thiophen-6-ylmethyl)-amino]-methyl}-phenoxy)-pentanoic acid cyclopentyl ester], for which the half-inhibitory concentration (IC50) in the test with U937 is less than 330 nM; in test [1], less than 100 nM; with Hela, 330 to 3300 nM; in the test with HUT it was less than 330 nM.
On to `N[C@H](CCCOc1ccc(CNCc2ccc3cc(C(=O)NO)sc3c2)cc1)C(=O)O` [Example 16, (R)-2-Amino-5-(4-{[(2-hydroxycarbamoyl-benzo[b]thiophen-6-ylmethyl)-amino]-methyl}-phenoxy)-pentanoic acid], for which, in test [1], the IC50 was less than 100 nM.
Same read-out and setting: as for `N[C@@H](CCCOc1ccc(CNCc2ccc3cc(C(=O)NO)sc3c2)cc1)C(=O)O` [Example 18, (S)-2-Amino-5-(4-{[(2-hydroxycarbamoyl-benzo[b]thiophen-6-ylmethyl)-amino]-methyl}-phenoxy)-pentanoic acid], the figure is 101 to 1000 nM.
In test [1], `COc1cc(CNCc2ccc3cc(C(=O)NO)sc3c2)ccc1OCCC[C@H](N)C(=O)O` [Example 20, (S)-2-Amino-5-(4-{[(2-hydroxycarbamoyl-benzo[b]thiophen-6-ylmethyl)-amino]-methyl}-2-methoxyphenoxy)-pentanoic acid] displayed a 50% inhibitory concentration (IC50) of less than 100 nM.
The same measure, in the same setting: as for `O=C(NO)c1cc2ccc(CNCc3ccc(OCCC[C@H](NC4CCCCC4)C(=O)O)cc3)cc2s1` [Example 23, (S)-2-Cyclohexylamino-5-(4-{[(2-hydroxycarbamoyl-benzo[b]thiophen-6-ylmethyl)-amino]-methyl}-phenoxy)-pentanoic acid], the figure is less than 100 nM.
Compound `N[C@H](C(=O)O)c1ccc(Oc2ccc(CNCc3ccc4cc(C(=O)NO)sc4c3)cc2)cc1` [Example 25, (S)-Amino-[4-(4-{[(2-hydroxycarbamoyl-benzo[b]thiophen-6-ylmethyl)-amino]-methyl}-phenoxy)-phenyl]-acetic acid] came in with an IC50 in test [1] of less than 100 nM.
On the same count and under the same terms, as for `N[C@@H](Cc1ccc(Oc2ccc(CNCc3ccc4cc(C(=O)NO)sc4c3)cc2)cc1)C(=O)O` [Example 27, (S)-2-Amino-3-[4-(4-{[(2-hydroxycarbamoyl-benzo[b]thiophen-6-ylmethyl)-amino]-methyl}-phenoxy)-phenyl]-propionic acid], the figure is less than 100 nM; as for `N[C@@H](CC1CCC(Oc2ccc(CNCc3ccc4cc(C(=O)NO)sc4c3)cc2)CC1)C(=O)O` (stereo partly drawn) [Example 29, 2-(S)-Amino-3-[4-(4-{[(2-hydroxycarbamoyl-benzo[b]thiophen-6-ylmethyl)-amino]-methyl}-phenoxy)-cyclohexyl]-propionic acid], less than 100 nM; as for `NC(C(=O)O)C1CCC(Oc2ccc(CNCc3ccc4cc(C(=O)NO)sc4c3)cc2)CC1` (stereo not shown) [Example 31, Amino-[4(4-{[(2-hydroxycarbamoyl-benzo[b]thiophen-6-ylmethyl)-amino]-methyl}-phenoxy)-cyclohexyl]-acetic acid], less than 100 nM.
